From publication PMC12152883, “Bile acids inhibit equilibrative adenosine transport to alter adenosine receptor signaling in cholestasis” (The Journal of Biological Chemistry, 2025)
Values joined by “and” are separate entries in the source; they are usually repeats but may differ in a detail not shown here. Equal values may be shown once.

Columns and labels:
[1] = molecular target: T1, ENT1 (Homo sapiens, UniProt Q99808); experiment: Inhibition of 3H-nucleoside influx by BAs in ENT1-expressing Xenopus oocytes; assay type: cell-based; settings: 3H-Ado 20 μM, sodium-free buffer; for IC50: read-out: ENT1 IC50 (Ado uptake); for ENT1 % uptake inhibition (Ado): BA 100 μM
T1 construct: The complete ORF of ENT1 (amplified using forward primer); expressed in transfected cells; host or cells: Xenopus laevis oocytes injected with in vitro-transcribed capped mRNA from pOX-hENT1
T1 sequence (Q99808 1-456): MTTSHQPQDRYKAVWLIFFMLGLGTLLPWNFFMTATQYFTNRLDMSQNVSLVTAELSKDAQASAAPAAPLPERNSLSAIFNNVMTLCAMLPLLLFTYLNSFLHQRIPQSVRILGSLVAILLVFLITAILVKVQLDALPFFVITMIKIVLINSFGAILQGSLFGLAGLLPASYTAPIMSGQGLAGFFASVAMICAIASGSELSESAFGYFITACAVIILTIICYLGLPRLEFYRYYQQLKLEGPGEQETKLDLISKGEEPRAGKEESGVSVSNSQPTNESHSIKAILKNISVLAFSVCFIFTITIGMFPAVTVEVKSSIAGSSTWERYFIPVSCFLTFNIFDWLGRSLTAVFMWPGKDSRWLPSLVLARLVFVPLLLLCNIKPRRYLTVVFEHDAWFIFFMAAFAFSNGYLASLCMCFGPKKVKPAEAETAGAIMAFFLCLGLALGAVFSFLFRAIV
Excerpt: (§1) We expressed individual ENTs (ENT1, ENT2, and ENT3) in X. laevis oocytes (as described above) and analyzed the Ado influx from each of the ENTs in the presence of different BAs to better understand whether the inhibition profiles differ across human ENTs. […] We also conducted an analysis of the concentration-dependent inhibition of Ado transport to estimate the IC50 values of the BAs (Fig. 4, D–F and Table 2).
(§2) Inhibition of Ado influx in H2O- and ENT-injected oocytes by treatment with different BAs at 100 μM. D–F, concentration-dependent inhibition of Ado influx in ENT-injected oocytes by different BAs. The bars represent the mean ± SD (n = 8–12 oocytes). A representative experiment from 3 to 5 independent experiments is presented. Statistical analysis was performed using one-way ANOVA with Dunnett’s multiple comparisons test; ∗p < 0.032, ∗∗p < 0.0021, ∗∗∗∗p < 0.0001.
(§3) The generated pOX expression constructs were linearized with either the Not1 or Sac1 restriction enzymes. The digested products were purified via phenol‒chloroform extraction. The mRNAs were synthesized using mMESSAGE mMACHINE (Ambion) transcription kits according to the manufacturer’s instructions. The mRNAs were purified via lithium precipitation. Oocytes were procured from Ecocyte. Prior to experiments, procured oocytes were defolliculated by treating with collagenase A-OR II solution followed by washing with Barth’s solution. Following microscopic verification, selected oocytes were incubated to recover overnight at 25 °C in a shaker incubator. Fifty nanoliters (400–800 ng/μl) of equal amounts of mRNAs were injected into defolliculated oocytes the next day. Expression of plasmids was analyzed after RNA isolation from oocyte extracts and conducting qPCR analysis with gene-specific primers as described earlier ([30]). The injected oocytes were incubated at 15 °C for 24 h before transport assays were performed. […] Uptake was terminated by washing the oocytes three times with arrest buffer containing 20 mM uridine. Individual oocytes were shaken overnight in 10% SDS for complete dissolution, and then the radioactivity was quantified with a Beckman liquid scintillation counter. The data are presented as the mean ± SD (n = 8–12 oocytes). A representative experiment from 3 to 5 independent experiments is presented.

[2] = molecular target: T2, ENT3 (Homo sapiens, UniProt Q9BZD2); experiment: Inhibition of 3H-nucleoside influx by BAs in ENT3-expressing Xenopus oocytes; assay type: cell-based; settings: for IC50 / ENT3 % uptake inhibition (Ado): 3H-Ado 20 μM, sodium-free buffer; for IC50: read-out: ENT3 IC50 (Ado uptake)
T2 construct: plasma membrane–directed ENT3 with a truncated N-terminus (that harbors lysosomal targeting motif); expressed in transfected cells; host or cells: Xenopus laevis oocytes injected with in vitro-transcribed mRNA from pOX-Δ36hENT3
T2 sequence (Q9BZD2 with tags, fused parts or gaps): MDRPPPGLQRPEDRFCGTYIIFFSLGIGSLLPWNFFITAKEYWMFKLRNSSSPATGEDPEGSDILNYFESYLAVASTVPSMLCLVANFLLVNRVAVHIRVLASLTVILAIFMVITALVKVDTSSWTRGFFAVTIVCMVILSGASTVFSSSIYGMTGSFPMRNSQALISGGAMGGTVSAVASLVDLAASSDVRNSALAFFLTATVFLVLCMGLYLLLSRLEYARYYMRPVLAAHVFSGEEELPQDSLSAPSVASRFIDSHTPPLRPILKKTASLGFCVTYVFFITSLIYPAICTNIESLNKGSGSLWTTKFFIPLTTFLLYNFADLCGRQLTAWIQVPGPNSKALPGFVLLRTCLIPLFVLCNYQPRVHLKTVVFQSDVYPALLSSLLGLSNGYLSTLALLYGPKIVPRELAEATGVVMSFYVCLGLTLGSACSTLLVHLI
Excerpt: as §1, §2, §3

[3] = molecular target: T3, ENT2 (Homo sapiens, UniProt Q14542); experiment: BA transport by ENT2-injected oocytes quantified by LC-MS/MS; assay type: cell-based; set-up: expressed in transfected cells; host or cells: Xenopus laevis oocytes injected with in vitro-transcribed capped mRNA from pOX-hENT2; settings: pH 7.4, p < 0.001 compared with water-injected oocytes
T3 sequence (Q14542 1-456): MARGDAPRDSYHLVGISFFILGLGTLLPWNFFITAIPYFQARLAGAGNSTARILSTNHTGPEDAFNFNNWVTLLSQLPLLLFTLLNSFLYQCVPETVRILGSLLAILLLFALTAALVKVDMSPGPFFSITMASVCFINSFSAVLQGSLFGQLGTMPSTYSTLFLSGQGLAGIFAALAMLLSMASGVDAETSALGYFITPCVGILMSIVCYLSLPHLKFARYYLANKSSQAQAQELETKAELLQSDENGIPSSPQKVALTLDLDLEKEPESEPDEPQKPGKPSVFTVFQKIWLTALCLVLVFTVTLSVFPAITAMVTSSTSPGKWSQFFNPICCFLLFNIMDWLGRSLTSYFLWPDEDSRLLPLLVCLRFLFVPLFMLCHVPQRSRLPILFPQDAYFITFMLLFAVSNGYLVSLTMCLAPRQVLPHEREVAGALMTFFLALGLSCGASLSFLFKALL
Procedure: Therefore, we studied several different BAs and used a liquid chromatography–tandem mass spectrometry (LC‒MS/MS) method to quantify the transport activity of H2O-injected and ENT2 mRNA-injected oocytes using TCA as a positive control. […] We subsequently tested the ability of ENT2 to transport BAs at different physiological pH values ranging from pH 5.5 to pH 7.4 by varying the pH of the transport buffers in which the assay was conducted.
The mass spectrometric validation of the transport of all metabolites was performed with oocytes using a previously reported method ([24]). […] After an incubation at 4 °C for 24 h, the samples were centrifuged at 20,000g for 10 min, and the supernatants were collected. The samples (10 μl) were injected into a Thermo Scientific Vanquish UPLC system interfaced with a Thermo Scientific TSQ Quantiva triple-stage quadrupole mass spectrometer equipped with an H-ESI ion source. MS detection was conducted in negative ionization mode, and the transitions monitored for each metabolite are listed in Sup. Table S2. The operational mass spectrometric parameters included a capillary voltage of 4.5 kV; sheath gas of 35 arbitrary units; auxiliary gas of 10 arbitrary units; sweep gas of two arbitrary units; ion transfer tube temperature of 350 °C; vaporizer temperature of 450 °C; dwell time of 50 ms per transition; collision energy of 5 V; and collision-induced dissociation gas of 1.5 mTorr. Chromatographic separation was performed on a Kinetex […] (100 × 2.1 mm; 1.7 μm particle size) from Phenomenex. The mobile phase consisted of solvent A: water (0.1% formic acid) and solvent B: acetonitrile (0.1% formic acid). The flow rate was set at 0.3 ml/min, and the autosampler was maintained at 4 °C throughout the analysis.

[4] = molecular target: T3, ENT2; experiment: Inhibition of 3H-nucleoside influx by BAs in ENT2-expressing Xenopus oocytes; assay type: cell-based; set-up: expressed in transfected cells; host or cells: Xenopus laevis oocytes injected with in vitro-transcribed capped mRNA from pOX-hENT2; settings: for IC50 / ENT2 % uptake inhibition (Ado): 3H-Ado 20 μM, sodium-free buffer; for IC50: read-out: ENT2 IC50 (Ado uptake)
Excerpt: as §1, §2, §3

[5] = molecular target: ENT1; settings: classical nucleoside transporter inhibitors; no reference given; cited from earlier work
[6] = molecular target: ENT2; settings: classical nucleoside transporter inhibitors; no reference given; cited from earlier work
[7] = molecular target: T3, ENT2; experiment: Inhibition of 3H-CA transport by ENT2 in oocytes by nucleoside transporter inhibitors; assay type: cell-based; set-up: expressed in transfected cells; host or cells: Xenopus laevis oocytes injected with in vitro-transcribed capped mRNA from pOX-hENT2; settings: inhibitor at 10 μM (Fig. 2D legend 100 μM), pH 7.4
Procedure: Next, we asked whether the transport patterns of the above BAs mediated by ENT2 are similar to those of nucleoside transport in terms of pharmacological inhibition or pH-dependent properties.
Oocytes were procured from Ecocyte. Prior to experiments, procured oocytes were defolliculated by treating with collagenase A-OR II solution followed by washing with Barth’s solution. Following microscopic verification, selected oocytes were incubated to recover overnight at 25 °C in a shaker incubator. Fifty nanoliters (400–800 ng/μl) of equal amounts of mRNAs were injected into defolliculated oocytes the next day. […] The injected oocytes were incubated at 15 °C for 24 h before transport assays were performed. The uptake of radiolabeled substrates was measured after a 30 min incubation in transport buffer (100 mM NaCl, 2 mM KCl, 1 mM CaCl2, 1 mM MgCl2, and 10 mM Hepes, pH 7.4) at room temperature. Uptake was terminated by washing the oocytes three times with arrest buffer containing 20 mM uridine. Individual oocytes were shaken overnight in 10% SDS for complete dissolution, and then the radioactivity was quantified with a Beckman liquid scintillation counter. The data are presented as the mean ± SD (n = 8–12 oocytes). A representative experiment from 3 to 5 independent experiments is presented.

Row | SMILES | IC50 [1] | ENT1 % uptake inhibition (Ado) [1] | IC50 [2] | ENT3 % uptake inhibition (Ado) ([2]; BA 100 μM) | transport by ENT2 mRNA-injected vs water-injected oocytes (LC-MS/MS) [3] | IC50 [4] | ENT2 % uptake inhibition (Ado) ([4]; BA 100 μM) | also measured
1 | C[C@H](CCC(=O)O)[C@H]1CC[C@H]2[C@@H]3[C@H](O)C[C@@H]4C[C@H](O)CC[C@]4(C)[C@H]3CC[C@]12C [CDCA, chenodeoxycholic acid] | 24.3 ± 7 µM | 69.12% | 0.3 ± 0.1 µM | 77.0% | significant transport | 22.9 ± 4.9 µM | 66.07% | inhibition of guanosine transport mediated by ENT2 ([4]; BA 100 μM, 3H-guanosine 20 μM): not statistically significant
2 | C[C@H](CCC(=O)NCC(=O)O)[C@H]1CC[C@H]2[C@@H]3[C@H](O)C[C@@H]4C[C@H](O)CC[C@]4(C)[C@H]3C[C@H](O)[C@]12C [GCA, glycocholic acid] | 39.5 ± 8.5 µM | 35.05% | 10.7 ± 4.6 µM | 68.0% | significant transport | 16.7 ± 3.9 µM | 72.22% | 
3 | C[C@H](CCC(=O)O)[C@H]1CC[C@H]2[C@@H]3CC[C@@H]4C[C@H](O)CC[C@]4(C)[C@H]3CC[C@]12C [LCA] | 66.9 ± 15.4 µM | 32.59% | 88.8 ± 27.4 µM | 71.2% |  | 18.4 ± 4.5 µM | 71.04% | 
4 | O=[N+]([O-])c1ccc(CSc2ncnc3c2ncn3C2OC(CO)C(O)C2O)cc1 (centres unmarked) [NBMPR, nitrobenzylthioinosine] |  |  |  |  |  |  |  | Ki [5]: ~0.01 µM; Ki [6]: ~10 µM; reduction of 3H-CA transport by ENT2 compared with uninhibited control [7]: 53.38%
5 | C[C@H](CCC(=O)NCCS(=O)(=O)O)[C@H]1CC[C@H]2[C@@H]3[C@@H](O)C[C@@H]4C[C@H](O)CC[C@]4(C)[C@H]3CC[C@]12C [TUDCA, tauroursodeoxycholic acid] | 204 ± 63 µM | 42.72% | 35.3 ± 16.4 µM | 62.6% |  | 4.9 ± 1.1 µM | 77% and 77.30% | inhibition of guanosine transport activity of ENT3 ([2]; BA 100 μM, 3H-guanosine 20 μM): inhibited
6 | C[C@H](CCC(=O)O)[C@H]1CC[C@H]2[C@@H]3[C@@H](O)[C@@H](O)[C@@H]4C[C@H](O)CC[C@]4(C)[C@H]3CC[C@]12C [beta-muricholic acid] |  |  |  |  | significant transport |  |  | 
7 | COc1cc(C(=O)OCCCN2CCCN(CCCOC(=O)c3cc(OC)c(OC)c(OC)c3)CC2)cc(OC)c1OC [dilazep] |  |  |  |  |  |  |  | Ki [5]: ~0.01 µM; Ki [6]: ~10 µM; reduction of 3H-CA transport by ENT2 compared with uninhibited control [7]: 38.02%
8 | OCCN(CCO)c1nc(N2CCCCC2)c2nc(N(CCO)CCO)nc(N3CCCCC3)c2n1 [dipyridamole] |  |  |  |  |  |  |  | Ki [5]: ~0.01 µM; Ki [6]: ~10 µM; reduction of 3H-CA transport by ENT2 compared with uninhibited control [7]: 34.57%
9 | C[C@H](CCC(=O)O)[C@H]1CC[C@H]2[C@@H]3[C@H](O)[C@H](O)[C@@H]4C[C@H](O)CC[C@]4(C)[C@H]3CC[C@]12C [hyocholic acid] |  |  |  |  | significant transport |  |  | 
10 | C[C@H](CCC(=O)NCCS(=O)(=O)O)[C@H]1CC[C@H]2[C@@H]3[C@@H](O)[C@@H](O)[C@@H]4C[C@H](O)CC[C@]4(C)[C@H]3CC[C@]12C [tauro-beta-muricholic acid] |  |  |  |  | significant transport |  |  | 
11 | C[C@H](CCC(=O)O)[C@H]1CC[C@H]2[C@@H]3[C@@H](O)C[C@@H]4C[C@H](O)CC[C@]4(C)[C@H]3CC[C@]12C [ursodeoxycholic acid] |  |  |  |  | significant transport |  |  | 
